Measurements taken from PubChem BioAssay (NCI).
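Grown in 96-well plates, cells were treated for 48 hours with each compound at five concentrations. Insufficient inhibition: endpoint recorded as highest concentration tested. TGI: total growth inhibition.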

What was measured:
Assay in all cases: growth of human tumour cells (NCI), 48 h
[1] = tested on: A549 NSCLC
[2] = tested on: SF-268 CNS
[3] = tested on: 786-0 renal
[4] = tested on: TK-10 renal
[5] = tested on: NCI-H522 lung
[6] = tested on: NCI-H460 lung
[7] = tested on: SR leukemia
[8] = tested on: MDA-MB-435
[9] = tested on: LOX IMVI melanoma
[10] = tested on: HCT-15 colon
[11] = tested on: SK-MEL-5 melanoma
[12] = tested on: HOP-92 NSCLC
[13] = tested on: NCI-H23 lung
[14] = tested on: OVCAR-3 ovarian
[15] = tested on: BT-549 breast
[16] = tested on: IGROV1 ovarian
[17] = tested on: RPMI-8226 leukemia
[18] = tested on: MCF7 breast
[19] = tested on: HL-60(TB) leukemia
[20] = tested on: OVCAR-4 ovarian
[21] = tested on: HCC-2998 colon
[22] = tested on: OVCAR-5 ovarian
[23] = tested on: NCI/ADR-RES ovarian
[24] = tested on: CAKI-1 renal
[25] = tested on: UACC-62 melanoma
[26] = tested on: KM12 colon
[27] = tested on: RXF 393 renal
[28] = tested on: UACC-257 melanoma
[29] = tested on: SK-MEL-28 melanoma
[30] = tested on: SK-OV-3 ovarian
[31] = tested on: M14 melanoma
[32] = tested on: MALME-3M melanoma
[33] = tested on: SK-MEL-2 melanoma
[34] = tested on: HOP-62 NSCLC
[35] = tested on: MOLT-4 leukemia
[36] = tested on: UO-31 renal
[37] = tested on: SN12C renal
[38] = tested on: ACHN renal
[39] = tested on: HT29 colon
[40] = tested on: CCRF-CEM leukemia
[41] = tested on: T-47D breast
[42] = tested on: SNB-19 CNS
[43] = tested on: A498 renal
[44] = tested on: U251 CNS
[45] = tested on: HS 578T breast
[46] = tested on: MDA-N
[47] = tested on: PC-3 prostate
[48] = tested on: NCI-H226 lung
[49] = tested on: HCT-116 colon
[50] = tested on: SW-620 colon
[51] = tested on: EKVX NSCLC
[52] = tested on: SF-295 CNS
[53] = tested on: COLO 205 colon
[54] = tested on: DU-145 prostate
[55] = tested on: SF-539 CNS
[56] = tested on: SNB-75 CNS
[57] = tested on: OVCAR-8 ovarian
[58] = tested on: MDA-MB-231 breast
[59] = tested on: K-562 leukemia

`CCOP(=O)(O)C(Nc1ccc(N=Nc2ccccc2)cc1)c1ccc(C(Nc2ccc(N=Nc3ccccc3)cc2)P(=O)(O)OCC)cc1` (configuration not stated) gave a TGI [1] of 88.7 µM, a TGI [2] of 42.9 µM and a TGI [3] of 78.5 µM. The TGI [4] was > 100 µM, the TGI [5] was 37.6 µM and the TGI [6] was 50.3 µM. The TGI [7] was 42.6 µM, the TGI [8] was 32.4 µM and the TGI [9] was 29.6 µM. The TGI [10] was 47.9 µM, the TGI [11] was 30.7 µM and the TGI [12] was 95.1 µM. For the same compound, the TGI [13] was 64.2 µM, the TGI [14] was > 100 µM and the TGI [15] was 49.2 µM. The TGI [16] was 47.8 µM, the TGI [17] was 53.8 µM and the TGI [18] was > 100 µM. The TGI [19] was 37 µM, the TGI [20] was > 100 µM and the TGI [21] was 34.3 µM. The TGI [22] was 53.7 µM, the TGI [23] was 73 µM and the TGI [24] was > 100 µM. The TGI [25] was 35 µM, the TGI [26] was 31 µM and the TGI [27] was 49.3 µM. It also gave a TGI [28] of 70.1 µM, a TGI [29] of 33.5 µM and a TGI [30] of 36.8 µM. It also gave a TGI [31] of 29.6 µM, a TGI [32] of 32.2 µM and a TGI [33] of 32.8 µM. The TGI [34] was 36.3 µM, the TGI [35] was 37.2 µM and the TGI [36] was > 100 µM. For the same compound, the TGI [37] was 46.3 µM, the TGI [38] was > 100 µM and the TGI [39] was 33.8 µM. For the same compound, the TGI [40] was 41.6 µM, the TGI [41] was 47.1 µM and the TGI [42] was 41.2 µM. The TGI [43] was 64.8 µM, the TGI [44] was 33.5 µM and the TGI [45] was 46.8 µM. It also gave a TGI [46] of 40.8 µM, a TGI [47] of 35.7 µM and a TGI [48] of 99.2 µM. The TGI [49] was 39.5 µM, the TGI [50] was 38.2 µM and the TGI [51] was 41 µM. For the same compound, the TGI [52] was 35 µM, the TGI [53] was 28.8 µM and the TGI [54] was > 100 µM. The TGI [55] was 38.2 µM, the TGI [56] was 34.5 µM and the TGI [57] was 31.4 µM. It also gave a TGI [58] of 90.9 µM and a TGI [59] of 35.7 µM.
With `CC12CCC(C(Br)(Br)C1=O)C2(C)C` (configuration not stated) the TGI [1] was > 100 µM, the TGI [2] was 1.22 µM and the TGI [3] was 3.84 µM. It also gave a TGI [4] of 11 µM, a TGI [5] of 0.155 µM and a TGI [6] of 27.2 µM. The TGI [7] was 12.9 µM, the TGI [8] was 2.24 µM and the TGI [9] was 11.3 µM. For the same compound, the TGI [10] was 3.57 µM, the TGI [11] was 4.74 µM and the TGI [12] was 2.81 µM. The TGI [13] was 2.21 µM, the TGI [14] was 4.1 µM and the TGI [15] was 2.68 µM. The TGI [16] was 0.516 µM, the TGI [17] was 1.78 µM and the TGI [18] was > 36.8 µM. It also gave a TGI [19] of 0.149 µM, a TGI [20] of 5.58 µM and a TGI [21] of 4.91 µM. The TGI [22] was 6.57 µM, the TGI [23] was 1.06 µM and the TGI [24] was 14.9 µM. For the same compound, the TGI [25] was 10.1 µM, the TGI [26] was 16.1 µM and the TGI [27] was 2.54 µM. For the same compound, the TGI [28] was 16.7 µM, the TGI [29] was 6.46 µM and the TGI [30] was > 31.6 µM. For the same compound, the TGI [31] was 3.98 µM, the TGI [32] was 1 µM and the TGI [33] was 0.98 µM. It also gave a TGI [34] of 13.6 µM, a TGI [35] of 2.53 µM and a TGI [36] of 3.25 µM. It also gave a TGI [37] of 5.84 µM, a TGI [38] of 7.69 µM and a TGI [39] of 3.19 µM. The TGI [40] was 0.196 µM, the TGI [41] was 1.02 µM and the TGI [42] was > 57.6 µM. For the same compound, the TGI [43] was 17.5 µM, the TGI [44] was 0.224 µM and the TGI [45] was 9.29 µM. It also gave a TGI [46] of 2.65 µM, a TGI [47] of 7.98 µM and a TGI [48] of 8.64 µM. It also gave a TGI [49] of 3.71 µM, a TGI [50] of 0.71 µM and a TGI [51] of 2.81 µM. For the same compound, the TGI [52] was 22.4 µM, the TGI [53] was 14.7 µM and the TGI [54] was 37.1 µM. For the same compound, the TGI [55] was 16.9 µM, the TGI [56] was 11.6 µM and the TGI [57] was 11.3 µM. For the same compound, the TGI [58] was 1.51 µM and the TGI [59] was 13.1 µM.
With `C[N+](C)(CCNC(=O)c1cccc2cc3ccccc3nc12)Cc1ccc([N+](=O)[O-])cc1` the TGI [1] was > 100 µM, the TGI [2] was > 100 µM and the TGI [3] was > 100 µM. For the same compound, the TGI [4] was > 100 µM, the TGI [5] was > 100 µM and the TGI [6] was > 100 µM. For the same compound, the TGI [7] was > 100 µM, the TGI [8] was > 100 µM and the TGI [9] was > 100 µM. The TGI [10] was > 100 µM, the TGI [11] was > 100 µM and the TGI [12] was > 100 µM. For the same compound, the TGI [13] was > 100 µM, the TGI [14] was > 100 µM and the TGI [15] was > 100 µM. The TGI [16] was > 100 µM, the TGI [17] was > 100 µM and the TGI [18] was > 100 µM. For the same compound, the TGI [19] was > 100 µM, the TGI [20] was > 100 µM and the TGI [21] was > 100 µM. The TGI [22] was > 100 µM, the TGI [23] was > 100 µM and the TGI [24] was > 100 µM. For the same compound, the TGI [25] was > 100 µM, the TGI [26] was > 100 µM and the TGI [27] was > 100 µM. The TGI [28] was > 100 µM, the TGI [29] was > 100 µM and the TGI [30] was > 100 µM. For the same compound, the TGI [31] was > 100 µM, the TGI [32] was > 100 µM and the TGI [33] was > 100 µM. The TGI [34] was > 100 µM, the TGI [35] was > 100 µM and the TGI [36] was > 100 µM. For the same compound, the TGI [37] was > 100 µM, the TGI [38] was > 100 µM and the TGI [39] was > 100 µM. The TGI [40] was > 100 µM, the TGI [41] was > 100 µM and the TGI [42] was > 100 µM. For the same compound, the TGI [43] was > 100 µM, the TGI [44] was > 100 µM and the TGI [45] was > 100 µM. The TGI [46] was > 100 µM, the TGI [47] was > 100 µM and the TGI [48] was > 100 µM. The TGI [49] was > 100 µM, the TGI [50] was > 100 µM and the TGI [51] was > 100 µM. The TGI [52] was > 100 µM, the TGI [53] was > 100 µM and the TGI [54] was > 100 µM. For the same compound, the TGI [55] was > 100 µM, the TGI [56] was > 100 µM and the TGI [57] was > 100 µM. The TGI [58] was > 100 µM and the TGI [59] was > 100 µM.
